Values quoted from earlier work in US6881426B2, “Echinacea angustifolia extracts” (priority 2002, dated 2005).

System: hyaluronidase

echinacoside
hyaluronidase inhibition: inhibition
